This is an account of results in patent US7348334B2, “Monocyclic derivatives of aryl alkanoic acids and their use in medicine: process for their preparation and pharmaceutical compositions containing them” (Dr. Reddy's Laboratories Limited, priority 2001, dated 2008).

Structures can show the parent of a compound that is named as a salt.

For one series, the system named is C57BL/KsJ-db/db mice. The series can be described thus: Blood sugar and triglyceride lowering in db/db mice. The settings on record: 10 mg/kg oral gavage daily for 6 days. The format is in vivo, mouse. The text has this:
Mutation in colonies of laboratory animals and different sensitivities to dietary regimens have made the development of animal models with non-insulin dependent diabetes and hyperlipidemia associated with obesity and insulin resistance possible. Genetic models such as db/db and ob/ob (Diabetes, (1982) 31(1): 1-6) mice and zucker fa/fa rats have been developed by the various laboratories for understanding the pathophysiology of disease and testing the efficacy of new antidiabetic compounds (Diabetes, (1983) 32: 830-838; Annu. Rep. Sankyo Res. Lab. (1994). 46: 1-57). The homozygous animals, C57 BL/KsJ-db/db mice developed by Jackson Laboratory, US, are obese, hyperglycemic, hyperinsulinemic and insulin resistant (J. Clin. Invest., (1990) 85: 962-967), whereas heterozygous are lean and normoglycemic. In db/db model, mouse progressively develops insulinopenia with age, a feature commonly observed in late stages of human type II diabetes when blood sugar levels are insufficiently controlled. The state of pancreas and its course vary according to the models. Since this model resembles that of type II diabetes mellitus, the compounds of the present invention were tested for blood sugar and triglycerides lowering activities.
[…] C57BL/KsJ-db/db mice of 8 to 14 weeks age, having body weight range of 35 to 60 grams, bred at Dr. Reddy's Research Foundation (DRF) animal house, were used in the experiment. The mice were provided with standard feed (National Institute of Nutrition (NIN), Hyderabad, India) and acidified water, ad libitum. The animals having more than 350 mg/dl blood sugar were used for testing. The number of animals in each group was 4.
Test compounds were suspended on 0.25% carboxymethyl cellulose and administered to test group at a dose of 0.001 mg to 30 mg/kg through oral gavage daily for 6 days. The control group received vehicle (dose 10 ml/kg). On 6th day the blood samples were collected one hour after administration of test compounds/vehicle for assessing the biological activity.
The random blood sugar and triglyceride levels were measured by collecting blood (100 μl) through orbital sinus, using heparinised capillary in tubes containing EDTA which was centrifuged to obtain plasma. The plasma glucose and triglyceride levels were measured spectrometrically, by glucose oxidase and glycerol-3-PO4 oxidase/peroxidase enzyme (Dr. Reddy's Lab. Diagnostic Division Kits, Hyderabad, India) methods respectively.
The blood sugar and triglycerides lowering activities of the test compound was calculated according to the formula.
(§1) 1. Percent reduction in Blood sugar/triglycerides/total cholesterol were calculated according to the formula: […]

The next series concerns the target T1, hPPARα (Homo sapiens, UniProt Q07869).
T1 construct: expressed in transfected cells; host or cells: HEK-293
T1 sequence (Q07869 239-466 limits assumed): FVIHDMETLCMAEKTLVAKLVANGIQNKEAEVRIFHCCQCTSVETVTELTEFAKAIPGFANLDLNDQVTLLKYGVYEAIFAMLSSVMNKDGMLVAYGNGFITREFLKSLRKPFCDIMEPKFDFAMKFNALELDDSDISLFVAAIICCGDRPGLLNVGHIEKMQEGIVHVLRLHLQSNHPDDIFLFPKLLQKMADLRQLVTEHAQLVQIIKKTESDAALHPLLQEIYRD
The series can be described thus: Determination of hPPARα activity (GAL4 fusion luciferase reporter in HEK-293 cells). As to conditions: compound at 50 μM. The format is cell-based. As to the method:
a) Determination of hPPARα Activity:
Ligand binding domain of hPPARα was fused to DNA binding domain of Yeast transcription factor GAL4 in eucaryotic expression vector. Using superfect (Qiagen, Germany) as transfecting reagent HEK-293 cells were transfected with this plasmid and a reporter plasmid harboring the luciferase gene driven by a GAL4 specific promoter. Compound was added at different concentrations after 42 hrs of transfection and incubated overnight. Luciferase activity as a function of compound binding/activation capacity of PPARα was measured using Packard Luclite kit (Packard, USA) in Top Count (Ivan Sadowski, Brendan Bell, Peter Broag and Melvyn Hollis. Gene. 1992. 118: 137-141; Superfect Transfection Reagent Handbook. February 1997. Qiagen, Germany).
For orientation: A reporter such as luciferase makes a cellular process visible.

The target of another series is T2, hPPARγ1 (Homo sapiens, UniProt P37231).
T2 construct: expressed in transfected cells; host or cells: HEK-293
T2 sequence (P37231 238-503 limits assumed): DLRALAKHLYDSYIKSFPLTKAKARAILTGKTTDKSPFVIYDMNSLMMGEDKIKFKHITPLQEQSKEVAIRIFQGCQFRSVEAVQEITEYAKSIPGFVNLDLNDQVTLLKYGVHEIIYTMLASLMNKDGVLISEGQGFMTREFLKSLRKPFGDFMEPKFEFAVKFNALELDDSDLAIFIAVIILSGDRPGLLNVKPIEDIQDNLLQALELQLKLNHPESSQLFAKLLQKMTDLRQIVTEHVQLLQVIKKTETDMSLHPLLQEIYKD
Nature of the series: Determination of hPPARγ activity (GAL4 fusion luciferase reporter in HEK-293 cells). The series is classed as cell-based. The settings on record: compound at 1 μM. As to the method:
b) Determination of hPPARγ Activity:
Ligand binding domain of hPPARγ1 was fused to DNA binding domain of Yeast transcription factor GAL4 in eucaryotic expression vector. Using lipofectamine (Gibco BRL, USA) as transfecting reagent HEK-293 cells were transfected with this plasmid and a reporter plasmid harboring the luciferase gene driven by a GAL4 specific promoter. Compound was added at 1 μM concentration after 48 hrs of transfection and incubated overnight.

The test system of the next series is Swiss albino mice. The series can be described thus: Plasma triglyceride lowering activity in Swiss albino mice and guinea pigs. The series is classed as in vivo, mouse. As to the method: c) Plasma Triglyceride and Total Cholesterol Lowering Activity in Swiss Albino Mice and Guinea Pigs:
Male Swiss albino mice (SAM) and male Guinea pigs were obtained from NIN and housed in DRF animal house. All these animals were maintained under 12 hour light and dark cycle at 25±1° C. Animals were given standard laboratory chow (NIN, Hyderabad, India) and water, ad libitum. SAM of 20-25 g body weight range and Guinea pigs of 500-700 g body weight range were used (Oliver, P., Plancke, M. O., Marzin, D., Clavey, V., Sauzieres, J and Fruchart, J. C. Effects of fenofibrate, gemfibrozil and nicotinic acid on plasma lipoprotein levels in normal and hyperlipidemic mice. Atherosclerosis, 1988. 70: 107-114).
The test compounds were administered orally to Swiss albino mice at 0.3 to 30 mg/kg/day dose for 6 days. Control mice were treated with vehicle (0.25% Carboxymethylcellulose; dose 10 ml/kg). The test compounds were administered orally to Guinea pigs at 0.3 to 30 mg/kg/day dose for 6 days. Control animals were treated with vehicle (0.25% Carboxymethylcellulose; dose 5 ml/kg).
The blood samples were collected in fed state 1 hour after drug administration on 0 and 6 day of treatment. The blood was collected from the retro-orbital sinus through heparinised capillary in EDTA containing tubes. After centrifugation, plasma sample was separated for triglyceride and total cholesterol (Wieland, O. Methods of Enzymatic analysis. Bergermeyer, H. O., Ed., 1963. 211-214; Trinder, P. Ann. Clin. Biochem. 1969. 6: 24-27). Measurement of plasma triglyceride, total cholesterol and HDL were done using commercial kits (Dr. Reddy's Diagnostic Division, Hyderabad, India).
as §1

In turn, `CCOC(=O)C(C)(C)Oc1ccc(C(=O)NCCn2c(CC)nc(-c3ccccc3)cc2=O)cc1` [Example 2] gave a melting point of 148 to 150 °C.

In the case of `CCOC(=O)C(C)(C)Oc1ccc(NC(=O)Cn2c(CC)nc(-c3ccccc3)cc2=O)cc1` [Example 4], the melting point was in the range of 128 to 130 °C. Still for that read-out and setting: the figure for `CCCCCCC(Oc1ccc(NC(=O)Cn2c(CC)nc(-c3ccccc3)cc2=O)cc1)C(=O)OCC` (stereo not drawn) [Example 9] is 140 to 143 °C; for `CCCC(Oc1ccc(OCCn2c(CC)nc(-c3ccccc3)cc2=O)cc1)C(=O)OCC` (stereo not drawn) [Example 16] it is 80 to 82 °C. The same measure, in the same setting: the figure for `CCCC(Nc1ccc(OCCn2c(CC)nc(-c3ccccc3)cc2=O)cc1)C(=O)OCC` (stereo not drawn) [Example 24] is 40 °C. On the same count and under the same terms, the figure for `CCCCCCCN(c1ccc(OCCn2c(CC)nc(-c3ccccc3)cc2=O)cc1)C(C)C(=O)OCC` (stereo not drawn) [Example 25] is 88 to 89 °C. With `CCCCCCCN(C(=O)Cn1c(CC)nc(-c2ccccc2)cc1=O)c1ccc(SC(C(=O)O)C(C)C)cc1` (stereo not drawn) [Example 26, 2-[4-(2-Ethyl-6-oxo-4-phenyl-1,6-dihydropyrimidin-1-ylmethyl(heptyl)carboxamido)phenylsulfanyl}-3-methyl butanoic acid], in the series on C57BL/KsJ-db/db mice, the “Reduction in Blood Glucose Level (%)” value is 41% and the “Triglyceride Lowering (%)” value was 45%. Consider `CCc1nc(-c2ccccc2)cc(=O)n1CCNC(=O)c1ccc(OC(C)(C)C(=O)O)cc1` [Example 27], for which the melting point amounted to 210 °C. On the same count and under the same terms, the value for `CCc1nc(-c2ccccc2)cc(=O)n1CC(=O)Nc1ccc(OC(C)(C)C(=O)O)cc1` [Example 29] was 120 °C. In turn, `CCCCCCCN(C(=O)Cn1c(CC)nc(-c2ccccc2)cc1=O)c1ccc(OC(C)(C)C(=O)O)cc1` [Example 30] came in with a melting point of 68 to 70 °C. Also, in the series with C57BL/KsJ-db/db mice, the “Reduction in Blood Glucose Level (%)” value amounted to 34% and the “Triglyceride Lowering (%)” value is recorded as 63%. The compound `CCc1nc(-c2ccccc2)cc(=O)n1CCOc1ccc(OC(C)(C)C(=O)O)cc1` [Example 31] gave a melting point of 158 to 160 °C.

Regarding `CCCC(Oc1ccc(OCCn2c(CC)nc(-c3ccccc3)cc2=O)cc1)C(=O)O` (stereo not drawn) [Example 32], the melting point was 190 to 192 °C. For `CCc1nc(-c2ccccc2)cc(=O)n1CCOc1ccc(OC(C)(CC)C(=O)O)cc1` (stereo not drawn) [Example 33], the melting point is 159 to 161 °C.

As to `CCc1nc(-c2ccccc2)cc(=O)n1CCOc1ccc(NC(C)C(=O)O)cc1` (stereo not drawn) [Example 34], the melting point is 52 °C. As to `CCc1nc(-c2ccccc2)cc(=O)n1CCOc1ccc(NC(C)C(=O)O)cc1` (stereo not drawn) [Example 35], the melting point was in the range of 192 to 194 °C. This compound registered a PPARα on hPPARα of 6.2. The compound also gave a PPARγ at hPPARγ1 of 2.2. Regarding `CCCCCCCN(C(=O)Cn1c(CC)nc(-c2ccccc2)cc1=O)c1ccc(OC(C)(CC)C(=O)O)cc1` (stereo not drawn) [Example 36], the melting point lay within 52 to 54 °C. This compound gave a PPARα on hPPARα of 7.5. Further, the PPARγ on hPPARγ1 is 1.2. Take `CCCCCCCN(C(=O)Cn1c(CC)nc(-c2ccccc2)cc1=O)c1ccc(OC(CCC)C(=O)O)cc1` (stereo not drawn) [Example 37]: the melting point fell in the range of 48 to 50 °C. `CCc1nc(-c2ccccc2)cc(=O)n1CCOc1ccc(NC(C)(C)C(=O)O)cc1` [Example 38] returned a melting point of 168 to 169 °C. As for `CCCC(Nc1ccc(OCCn2c(CC)nc(-c3ccccc3)cc2=O)cc1)C(=O)O` (stereo not drawn) [Example 39], the melting point was in the range of 155 to 157 °C. Same read-out and setting: the value for `CCc1nc(-c2ccccc2)cc(=O)n1CCSc1ccc(OCC(=O)O)cc1` [Example 41] was 164 to 166 °C. For `CCCCCCCN(C(=O)Cn1c(CC)nc(-c2ccccc2)cc1=O)c1ccc(S[C@@H](CC(C)C)C(=O)O)cc1` [Example 43], the melting point fell in the range of 58 to 60 °C. Further, the “Triglyceride Lowering (%)” value in the series on Swiss albino mice (3 mg/kg orally for 6 days) came to 44%. Besides, in the series on C57BL/KsJ-db/db mice, the “Reduction in Blood Glucose Level (%)” value is listed as 39% and the “Triglyceride Lowering (%)” value was found to be 43%. On hPPARα, this compound showed a PPARα of 6.7. In addition, the PPARγ at hPPARγ1 turned out to be 2.2. Compound `CCc1nc(-c2ccccc2)cc(=O)n1CCOc1ccc(SC(C(=O)O)C(C)C)cc1` (stereo not drawn) [Example 44] registered a melting point of 64 °C. Besides, the “Triglyceride Lowering (%)” value in the series with Swiss albino mice (3 mg/kg orally for 6 days) amounted to 36%. `CCc1nc(-c2ccccc2)cc(=O)n1CC(=O)Nc1ccc(SC(C(=O)O)C(C)C)cc1` (stereo not drawn) [Example 45] returned a melting point of 195 to 200 °C. At hPPARα, this compound yielded a PPARα of 7.2. The PPARγ at hPPARγ1 is 0.8. For `CCc1nc(-c2ccccc2)cc(=O)n1CCNc1ccc(SC(CC)C(=O)O)cc1` (stereo not drawn) [Example 46], in that order: 118 °C, 6.5 and 3.1. Compound `CCc1nc(-c2ccccc2)cc(=O)n1CCNc1ccc(SC(CC(C)C)C(=O)O)cc1` (stereo not drawn) [Example 47] returned a melting point of 62 to 64 °C. The same measure, in the same setting: the value for `CCc1nc(-c2ccccc2)cc(=O)n1CCNc1ccc(SC(C(=O)O)C(C)C)cc1` (stereo not drawn) [Example 48] was 65 to 70 °C. Consider `CCCCCCCN(C(=O)Cn1c(CC)nc(-c2ccccc2)cc1=O)c1ccc(SC(CC)C(=O)O)cc1` (stereo not drawn) [Example 49, 2-[4-(2-Ethyl-6-oxo-4-phenyl-1,6-dihydropyrimidin-1-ylmethyl(heptyl)carboxamido)phenylsulfanyl}butanoic acid, arginine salt], for which the “Triglyceride Lowering (%)” value with Swiss albino mice (10 mg/kg orally for 6 days) amounted to 69%. `Cc1cccc(Nc2cc(Cl)nc(SCC(=O)O)n2)c1C` [Wy 14643, reference compound] came in with a PPARα at hPPARα of 7.

As usually defined, the melting point is the temperature of the solid-liquid transition.
